Experiments:
Type in all cases: biochemical
α-galactosidase = molecular target: T1, α-galactosidase (Homo sapiens, UniProt P06280); assay: Fabry assay on bench, substrate hydrolysis with cyclodextrins, QC DBS extracts; details: for effect on hydrolysis of the 4-MU substrate in the Fabry assay: 10, 30, 100 mM tested, effect at 10 mM
T1 construct: DBS extracts were prepared from quality control (QC) dried blood spot samples; tissue CDC, Atlanta Ga; host or cells: dried blood spot extracts (pooled cord blood / leukoreduced red cells plus serum)
T1 sequence (P06280 32-429): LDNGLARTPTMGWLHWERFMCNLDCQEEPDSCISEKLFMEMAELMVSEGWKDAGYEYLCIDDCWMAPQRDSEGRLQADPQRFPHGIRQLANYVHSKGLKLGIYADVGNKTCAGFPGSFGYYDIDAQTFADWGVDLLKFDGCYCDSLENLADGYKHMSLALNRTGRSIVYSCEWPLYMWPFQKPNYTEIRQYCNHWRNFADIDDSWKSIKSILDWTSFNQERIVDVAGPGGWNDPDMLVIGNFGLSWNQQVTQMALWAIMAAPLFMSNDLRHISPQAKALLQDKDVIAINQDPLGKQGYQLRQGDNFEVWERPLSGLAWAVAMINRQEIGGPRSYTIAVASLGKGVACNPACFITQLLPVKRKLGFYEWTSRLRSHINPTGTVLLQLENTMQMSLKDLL
Method: (§1) To evaluate the efficacy of cyclodextrins in enhancing the hydrolysis of enzymatic substrates (4-MU substrates) used in NBS assays, DBS extracts were prepared from quality control (QC) dried blood spot samples (i.e., base pool (BP), low (L), medium (M) and high (H) activity samples). The QC samples were obtained from CDC, Atlanta Ga. The base pool (BP) QC sample was prepared from a pool of leukoreduced human red blood cells that was adjusted with serum to a hematocrit of 50%. The High (H) activity QC sample was prepared from pooled cord blood that was adjusted with serum to a hematocrit of 50%. The medium (M) activity QC sample was prepared by using 50% base pool (BP) and 50% high (H) activity sample. The low (L) activity QC sample was prepared by using 95% base pool (BP) and 5% high (H) activity sample. The BP sample is used as a control for hydrolysis non-specific to white blood cell lysosomal enzymes. The DBS extracts were analyzed using on-bench assay protocols for Fabry, Gaucher, Krabbe, and Pompe diseases. For each assay, on-chip reagent formulations were scaled up to bench volumes. Hydroxypropyl-β-cyclodextrin or methyl-β-cyclodextrin reagent stocks (300 mM) were prepared in appropriate assay buffers. For each reaction, 10 μL of the appropriate substrate was mixed with 10 μL of DBS extract. After an incubation period (20 hrs at 37° C.), 50 μL of stop buffer (0.2 M NaCO3, pH 10.1) was added to the reaction. Fluorescence was read at 360/460 nm at a gain of 75. For each assay, QC samples (BP, L, M and H) were analyzed in duplicate.
FIGS. 20A and 20B show bar graphs 2000 and 2050 of the effect of hydroxypropyl-β-cyclodextrin and methyl-β-cyclodextrin, respectively, on substrate hydrolysis in a Fabry assay. The 4-MU substrate in the Fabry assay was β-D-galactopyranoside. The concentrations of β-cyclodextrins in the reaction mixture (substrate+DBS extract) were 10 mM, 30 mM and 100 mM.
To further evaluate the efficacy of lower concentrations of cyclodextrins in enhancing the hydrolysis of 4-MU substrates, Fabry and Gaucher assays were repeated using cyclodextrins concentrations ranging from 1 mM to 25 mM. FIGS. 22A and 22B show bar graphs 2200 and 2250, respectively, of the effect of lower concentrations of hydroxypropyl-β-cyclodextrin and methyl-β-cyclodextrin, respectively, on substrate hydrolysis in a Fabry assay. The 4-MU substrate in the Fabry assay was β-D-galactopyranoside. The concentrations of β-cyclodextrins in the reaction mixture (substrate+DBS extract) were 1, 5, 10, 15, 20, and 25 mM. […] The preferred concentration of methyl-β-cyclodextrin is from about 1 mM to about 20 mM, or from about 5 mM to about 15 mM, or from about 7 mM to about 13 mM, or from about 9 mM to about 11 mM, or from about 9.5 mM to about 11.5 mM.

acid β-D-glucosidase = molecular target: T2, acid β-D-glucosidase (Homo sapiens, UniProt P04062); assay: Gaucher assay on bench, substrate hydrolysis with cyclodextrins, QC DBS extracts; parameters: DBS extracts were prepared from quality control (QC) dried blood spot samples; tissue CDC, Atlanta Ga; host or cells: dried blood spot extracts (pooled cord blood / leukoreduced red cells plus serum); details: for effect on fluorescence signal in the Gaucher assay, lower concentrations: 1, 5, 10, 15, 20, 25 mM, one experiment; for effect on hydrolysis of the 4-MU substrate in the Gaucher assay: 10, 30, 100 mM tested, effect at 10 mM, 20 hrs at 37° C.
T2 sequence (P04062 40-536): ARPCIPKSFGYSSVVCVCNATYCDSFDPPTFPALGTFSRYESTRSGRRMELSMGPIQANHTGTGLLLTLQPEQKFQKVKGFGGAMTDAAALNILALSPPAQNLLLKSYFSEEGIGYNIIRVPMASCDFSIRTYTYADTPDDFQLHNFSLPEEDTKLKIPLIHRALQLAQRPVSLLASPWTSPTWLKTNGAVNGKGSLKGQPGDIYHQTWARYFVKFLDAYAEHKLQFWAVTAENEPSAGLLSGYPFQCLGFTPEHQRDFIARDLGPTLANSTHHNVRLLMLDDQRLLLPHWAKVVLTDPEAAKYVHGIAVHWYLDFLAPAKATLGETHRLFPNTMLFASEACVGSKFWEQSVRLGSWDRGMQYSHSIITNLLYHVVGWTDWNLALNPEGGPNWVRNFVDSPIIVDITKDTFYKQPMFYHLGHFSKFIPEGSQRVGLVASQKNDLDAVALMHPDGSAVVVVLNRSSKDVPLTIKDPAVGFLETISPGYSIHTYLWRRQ
Method: as §1
FIGS. 21A and 21B show bar graphs 2100 and 2150 of the effect of hydroxypropyl-β-cyclodextrin and methyl-β-cyclodextrin, respectively, on substrate hydrolysis in a Gaucher assay. The 4-MU substrate in the Gaucher assay was β-D-glucopyranoside. The concentrations of β-cyclodextrins in the reaction mixture (substrate+DBS extract) were 10 mM, 30 mM, and 100 mM.
FIGS. 23A and 23B show bar graphs 2300 and 2350, respectively, of an experimental result of the effect of lower concentrations of hydroxypropyl-β-cyclodextrin and methyl-β-cyclodextrin, respectively, on substrate hydrolysis in a Gaucher assay. The 4-MU substrate in the Gaucher assay was β-D-glucopyranoside. The concentrations of β-cyclodextrins in the reaction mixture (substrate+DBS extract) were 1, 5, 10, 15, 20, and 25 mM. […] The β-cyclodextrin used may be hydroxypropyl-β-cyclodextrin at a concentration from about 5 mM to about 15 mM, or from about 7 mM to about 13 mM, or from about 9 mM to about 11 mM, or from about 9.5 mM to about 11.5 mM.

α-glucosidase = molecular target: T3, α-glucosidase (Homo sapiens, UniProt P10253); assay: Pompe assay on bench, substrate hydrolysis with cyclodextrins, QC DBS extracts; details: data not shown
T3 construct: DBS extracts were prepared from quality control (QC) dried blood spot samples; tissue CDC, Atlanta Ga; host or cells: dried blood spot extracts (pooled cord blood / leukoreduced red cells plus serum)
Method: as §1, with “For each reaction, 10 μL of the appropriate substrate was mixed with 10 μL of DBS extract. After an incubation period (20 hrs at 37° C.), 50 μL of stop buffer (0.2 M NaCO3, pH 10.1) was added to the reaction.” left out, “duplicate. […]” for “duplicate.”

effect on substrate hydrolysis in a Fabry assay, lower concentrations (α-galactosidase; 1, 5, 10, 15, 20, 25 mM) | effect on hydrolysis of the 4-MU substrate in the Fabry assay (α-galactosidase; 20 hrs at 37° C.) | effect on fluorescence signal in the Gaucher assay, lower concentrations (acid β-D-glucosidase) | effect on hydrolysis of the 4-MU substrate in the Gaucher assay (acid β-D-glucosidase) | effect on substrate hydrolysis in a Pompe assay (α-glucosidase) | increase of the QC-H signal in the Fabry assay (α-galactosidase; 10 mM, 20 hrs at 37° C.) [%] | Substance
less effective | less effective | may affect the fluorescence signal | increase the hydrolysis | less effective |  | hydroxypropyl-β-cyclodextrin
 | increase the hydrolysis | may affect the fluorescence signal | increase the hydrolysis | less effective | 37 | methyl-β-cyclodextrin

Reference: patent US8394641B2, “Method of hydrolyzing an enzymatic substrate” (Advanced Liquid Logic Inc., priority 2009, dated 2013)
